Marks after values point to notes of the source that are not given here.
Key:
[1] = Chemical stability of alcaftadine solution in non-sterilized or gamma irradiated LDPE bottles and glass vials (HPLC); format: physicochemical
Description: The existence of the N-oxide structures as the primary oxidative degradation peak was confirmed as having the same HPLC relative retention time as a synthetically produced N-oxide structures and also confirmed using mass spectroscopy.
To investigate the effects of the gamma irradiation process used to sterilize the LDPE bottles, the chemical stability of alcaftadine was studied using different lots of bottles, either gamma irradiated or non-sterilized.
The following materials were used in this study.
2.5 mg/ml alfactadine solution
Non-sterilized 5 ml LDPE bottles (DUPONT 20-6064) from Bunder Glas GmbH (Germany)
Non-sterilized 5 ml LDPE bottles (DUPONT 20-6064) from Rexam (France)
Sterilized (gamma irradiated at 25 kGy) LDPE bottles (DUPONT 20-6064) from Bunder Glas GmbH
Scintillation vials—20 ml clear glass with Teflon coated cap Millex GV syringe filter unit
Chemical stability results for alcaftadine solution stored in either non-sterilized bottles (Rexam or Bunder Glas) or gamma-irradiated bottles (Bunder Glas) are summarized in Table 2. All samples were assayed by HPLC after 6 and 14 days of storage at 50° C. Light exposure was not controlled during storage. The solution was stored in either Rexam bottles (without sterilization), Bunder Glas bottles (sterilized with y Irradiation or without sterilization) and in glass vials.

[2] = target: T1, human histamine H4 receptor (Homo sapiens, UniProt Q9H3N8); assay: H4 receptor antagonist assay: shift of histamine EC50, Schild plot, in transfected SK-N-MC cells; format: cell-based
T1 construct: express a reporter gene construct and the human H4 receptor full-coding region; expressed in transfected cells; host or cells: SK-N-MC cells with a CRE-beta-galactosidase reporter
Procedure: Alcaftadine and 6,11-dihydro-11-(1-methyl-4-piperdinylidene)-5H-imidazo[2,1-b][3]benazepine-3-carboxylic acid (CAS #147083-93-0) were prepared at 10 mM in 100% dimethylsulfoxide (DMSO) for the binding assays and at 10 mM in Na/K phosphate buffer, pH 7.0, for the cellular assays. Cell pellets from SK-N-MC cells transfected with human H4 receptor were homogenized in 20 mM Tris-HCl/0.5 mM ethylendediaminetetraacetic acid (EDTA) pH 8.0 (TE buffer). Supernatants collected after centrifugation at 800 g were recentrifuged at 30,000 g for 30 min. Pellets were re-homogenized in TE buffer. […] Non-specific binding was defined with 100 μM cold histamine. […] Seven concentrations of compound were tested spanning 10^−11 to 10^−5 M with each concentration being run in triplicate. […] This assay was run twice and the results are reported as the average of the two runs. SK-N-MC cell lines were created that express a reporter gene construct and the human H4 receptor full-coding region. The reporter gene was β-galactosidase under the control of cyclic adenosine monophosphate (cAMP) responsive elements. Cells were plated in 96-well plates the night before the assay. Antagonists were added 10 min prior to the addition of histamine, which was added directly to the cell medium. Forskolin (5 μM final concentration) was added 10 min after the addition of histamine. Cells were returned to the incubator for 6 h at 37° C. The medium was then aspirated and cells were lysed with 25 μL of 0.1× assay buffer (10 mM sodium phosphate, pH 8, 0.2 mM MgSO4, 0.01 mM MnCl2) and incubated at room temperature for 10 min. […] Color was quantitated on a microplate reader at absorbance 570 nm. […]
To test whether alcaftadine or 6,11-dihydro-11-(1-methyl-4-piperdinylidene)-5H-imidazo[2,1-b][3]benazepine-3-carboxylic acid (CAS #147083-93-0) were antagonists of the H4 receptor, the ability of the compounds shift the EC50 of the histamine inhibition of forskolin-induced cAMP increases was assessed in SK-N-MC cells transfected with the human histamine H4 receptor. […]

[3] = tested on: ZO-1; assay: Integrity of conjunctival epithelium after conjunctival allergen challenge: ZO-1 expression (confocal microscopy); format: in vivo, mice
Procedure: To investigate the ability of alcaftadine to maintain the integrity of conjunctival epithelium, changes in the expression of the tight junction proteins ZO-1 and E-cadherin (an induction for E-cadherin and qualitative change-from focal to diffuse for ZO-1) were evaluated following specific conjunctival allergen challenge. These changes are associated with an increased permeability of the conjunctival and other epithelial tissues. This in vivo experiment examined what effect alcaftadine (topical administration 1 and 2 hours pre-challenge) had on the modulation of these proteins.
Mice were sensitized with short ragweed (SRW) in aluminum hydroxide via intraperitoneal administration (Day 0, 7, and 15) and eye drop instillation (Day 8 and 15). On Day 20, mice were further sensitized with eye drops containing only SRW. On Day 27, the mice were treated topically with either 5 μL alcaftadine or vehicle at 1 and 2 hours prior to challenge. SRW was instilled topically to both eyes. The expression of these proteins in naive eyes were also monitored. Changes in the expression of the tight junction proteins ZO-1 and E-cadherin were observed 1-hour post conjunctival allergen challenge with SRW. The proteins were detected using FITC-conjugated monoclonal antibodies specific for ZO-1 and E-cadherin and were visualized by confocal microscopy (Ziess). […]

[4] = Bunder Glas bottles, Y Irradiation (gamma, 25 kGy), 50° C., 6 days
[5] = Bunder Glas bottles, Y Irradiation (gamma, 25 kGy), 50° C., 14 days
[6] = Bunder Glas bottles, no sterilization, 50° C., 6 days
[7] = Bunder Glas bottles, no sterilization, 50° C., 14 days
[8] = Rexam bottles, no sterilization, 50° C., 6 days
[9] = Rexam bottles, no sterilization, 50° C., 14 days

T1 sequence (Q9H3N8 whole entry): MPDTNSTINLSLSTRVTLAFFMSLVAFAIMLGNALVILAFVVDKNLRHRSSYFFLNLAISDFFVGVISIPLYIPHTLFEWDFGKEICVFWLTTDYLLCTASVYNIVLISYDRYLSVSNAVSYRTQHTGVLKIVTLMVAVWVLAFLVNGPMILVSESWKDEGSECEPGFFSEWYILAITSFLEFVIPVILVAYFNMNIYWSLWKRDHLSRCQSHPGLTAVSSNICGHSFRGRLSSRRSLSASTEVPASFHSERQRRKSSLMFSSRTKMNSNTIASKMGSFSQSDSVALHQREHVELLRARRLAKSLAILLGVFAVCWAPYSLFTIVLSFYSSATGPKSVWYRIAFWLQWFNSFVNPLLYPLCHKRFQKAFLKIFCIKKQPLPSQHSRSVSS

## CN1CCC(=C2c3ccccc3CCn3c(C=O)cnc32)CC1 [Alcaftadine, 6,11-dihydro-11-(1-methyl-4-piperidinylidene)-5H-imidazo[2,1-b][3]benzazepine-3-carboxaldehyde]
[1]; 50° C.
  N-oxide formation in gamma irradiated Bunder Glas bottles compared with glass vials and non-sterilized Rexam and Bunder Glas bottles: significantly increased levels of N-oxide formation
[1]; [4]
  Alcaftadine: 2.41 mg/mL
  Oxide: 0.199%
[1]; [5]
  Alcaftadine: 2.39 mg/mL
  Oxide: 0.202%
[1]; [6]
  Alcaftadine: 2.48 mg/mL
  Oxide: 0.018%
[1]; [7]
  Alcaftadine: 2.48 mg/mL
  Oxide: 0.042%
[1]; Glass Vials, 50° C., 6 days
  Oxide: 0.024%
[1]; Glass Vials, 50° C., 6 days, sample showed significant evaporation
  Alcaftadine: 2.57* mg/mL
[1]; Initial Solution
  Alcaftadine: 2.47 mg/mL
  Oxide: 0.02%
[1]; [8]
  Alcaftadine: 2.46 mg/mL
  Oxide: 0.015%
[1]; [9]
  Alcaftadine: 2.48 mg/mL
  Oxide: 0.033%
[1]; primary degradation product N-oxide
  susceptibility to oxidation: susceptible to oxidation
[2]; parallel and rightward shifts in the histamine dose response curves
  mode of action at the receptor: competitive antagonist
[2]; x-intercept of the Schild plot
  pA2: 5.6
[3]; 5 μL topical at 1 and 2 hours prior to challenge, 1-hour post challenge
  ZO-1 staining, alcaftadine treatment versus naive (negative control): no or minimal difference
[3]; following specific conjunctival allergen challenge
  integrity of conjunctival epithelial tight junctions (focal ZO-1 expression): maintains the integrity of conjunctival epithelial tight junctions

— patent publication US10617695B2, “Ophthalmic compositions containing alcaftadine” (Vistakon Pharmaceuticals, LLC, priority 2006, dated 2020)
